Measured values published in ChEMBL document CHEMBL1124082, “Synthesis, intramolecular hydrogen bonding, and biochemical studies of clitocine, a naturally occurring exocyclic amino nucleoside” (J Med Chem, 1988).

Columns and labels:
[1] = biological target: T1, Adenosine kinase (Homo sapiens, UniProt P55263); assay: Binding affinity towards adenosine kinase
[2] = biological target: T1, Adenosine kinase; assay: Inhibition of adenosine kinase from undialyzed W1-L2 lysate (0-50 uM)
[3] = tested on: L1210; assay: In vitro inhibition of L1210 cells; format: functional; settings: Mus musculus, read-out: ID50 (the source's name)
[4] = Inhibition of growth of human B lymphoblast derived W1-L2 cells; format: functional; settings: WIL2, read-out: ID50 (the source's name)

T1 sequence (P55263 whole entry): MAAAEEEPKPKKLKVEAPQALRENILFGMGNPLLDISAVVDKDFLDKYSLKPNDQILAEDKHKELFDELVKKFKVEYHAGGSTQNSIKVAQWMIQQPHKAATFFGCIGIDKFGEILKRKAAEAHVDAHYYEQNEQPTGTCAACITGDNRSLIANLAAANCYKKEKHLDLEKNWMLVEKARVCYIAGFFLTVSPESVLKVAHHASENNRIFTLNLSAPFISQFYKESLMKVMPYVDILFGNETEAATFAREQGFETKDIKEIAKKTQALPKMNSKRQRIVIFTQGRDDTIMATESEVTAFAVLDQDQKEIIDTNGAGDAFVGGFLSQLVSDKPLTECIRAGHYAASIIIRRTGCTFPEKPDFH

Structure (SMILES): Nc1ncnc(N[C@@H]2O[C@H](CO)[C@@H](O)[C@H]2O)c1[N+](=O)[O-]
- Ki [1]: 300 nM
- Ki [2]: 3 µM
- IC50 [3]: 30 nM
- IC50 [4]: 30 nM
